{"source": "patent US11253519B2", "about": "“Composition used to improve symptoms of autism spectrum disorder, and method using same for improving symptoms of autism spectrum disorder” (RENASCIENCE CO., LTD., priority 2016, dated 2022)", "key": {"[1]": {"experiment": "Vitamin B1 level in whole blood, serum pyridoxamine and pyridoxal levels and Wernicke's encephalopathy in two test subjects on pyridoxamine medication", "assay_type": "in vivo, human"}, "[2]": {"experiment": "Capture of serotonin by glyoxal, free serotonin by HPLC", "assay_type": "biochemical", "conditions": "2.5 mM serotonin + 25 mM glyoxal + 25 mM test compound, pH 7.4, room temperature, 2 hours; glyoxal alone about 40%", "procedure": "(§1) The reaction solutions are incubated at room temperature, and the amount of free serotonin or dopamine, which were not captured by glyoxal, in the reaction solutions was measured by HPLC.\n(§2) The negative control contained only 5-HT or DP with a buffer (GO and the test compounds were not added) (test samples 1 and 5), and the positive control contained 5-HT or DP and only GO (none of the test compounds was added) (test samples 2 and 6). […] After incubation, the reaction solutions were diluted 10-fold (pH 7.4) with a 0.25 M phosphate buffer, and analyzed by HPLC. The HPLC analysis was performed with instruments produced by Shimadzu Corporation (system controller: SCL-10A vp, auto injector: SIL-10A, degasser: DGU-12A, liquid chromatograph: LC-10AD vp, UV-Vis detector: SPD-10A vp, and column oven: CTO-10AC vp) under the conditions shown in Table 6. The data analysis was performed with Chromatopac C-R7A Plus."}, "[3]": {"experiment": "Capture of dopamine by glyoxal, free dopamine by HPLC", "assay_type": "biochemical", "conditions": "2.5 mM dopamine + 25 mM glyoxal + 25 mM test compound, pH 7.4, room temperature, 30 minutes; glyoxal alone about 30%", "procedure": "as §1, §2"}, "ASD patients": {"system": "ASD patients", "conditions": "cited from earlier work"}}}
{"smiles": "CC(=C(CCO)SSCC1CCCO1)N(C=O)Cc1cnc(C)nc1N", "note": "(stereo in doubt) [Fursultiamine, fursultiamine, reference compound]", "values": [{"measurement": "symptom of Wernicke's encephalopathy", "setting": "[1]; subject ID No. 3, 14 weeks after start (8 weeks after start of thiamine compound 75 mg/day oral)", "result": "disappeared"}, {"measurement": "vitamin B1 level in whole blood", "setting": "[1]; subject ID No. 3, fursultiamine 75 mg/day oral for 6 weeks with continued pyridoxamine, 12 weeks after start, 28 ng/mL before thiamine", "result": 135, "unit": "ng/mL"}, {"measurement": "symptoms of Wernicke's encephalopathy", "setting": "[1]; subject ID No. 6, 11 weeks after start, on thiamine compound", "result": "disappeared"}, {"measurement": "vitamin B1 level in whole blood", "setting": "[1]; subject ID No. 6, fursultiamine 300 mg/day intravenous, then 100 to 50 mg/day oral, with pyridoxamine, 11 weeks after start, 25 ng/mL before thiamine", "result": 150, "unit": "ng/mL"}]}
{"smiles": "Cc1ncc(CO)c(C=O)c1O", "note": "[pyridoxal]", "values": [{"measurement": "amount of free serotonin relative to the negative control taken as 100%", "setting": "[2]", "result": "rather decreased"}, {"measurement": "amount of free dopamine relative to the negative control taken as 100%", "setting": "[3]", "result": "no free dopamine became detectable"}, {"measurement": "repetitive patterns of behavior of ASD patients", "setting": "ASD patients; 30 mg/kg/day, other research denies this efficacy (NPL 6)", "result": "effective"}]}
{"smiles": "Cc1ncc(CO)c(CO)c1O", "note": "[pyridoxine]", "values": [{"measurement": "side effects (irritability, hyperactivity, sound sensitivity, enuresis)", "setting": "ASD patients; children with ASD, NPL 8, NPL 9", "result": "may cause side effects to develop"}, {"measurement": "verbal intelligence", "setting": "ASD patients; children with pervasive developmental disorder who have sensitivity to sound, NPL 7", "result": "improvement in verbal intelligence"}, {"measurement": "intelligence quotient (IQ) scores", "setting": "ASD patients; children with pervasive developmental disorder, sensitive to sound, expressive language disorder, dyspraxia, high amount, NPL 2", "result": "increases in intelligence quotient (IQ) scores"}]}
